Data taken from ChEMBL document CHEMBL3045855, “ANTIPYRETIC, ANTINOCICEPTIVE AND ANTI-INFLAMMATORY ACTIVITIES OF CERTAIN -OXOBUTANOIC ACID DERIVATIVES” (2005).

Tests used:
Type in all cases: functional
[1] = tested on: Rattus norvegicus; assay: Antipyretic activity in yeast-fevered Rattus norvegicus Sprague-Dawley (rat) assessed as reduction in rectal temperature at 50 mg/kg, po administered 17 hr post challenge measured after 90 min; set-up: scale not given: the % may be the effect or the level left
[2] = tested on: Rattus norvegicus; assay: Anti-inflammatory in Rattus norvegicus Sprague-Dawley (rat) subcutaneously implanted with cotton pellets assessed as inhibition of granuloma growth at 50 mg/kg, po measured after 7 days; conditions: 168 h
[3] = tested on: Rattus norvegicus; assay: Anti-inflammatory activity in Rattus norvegicus Sprague-Dawley (rat) assessed as inhibition of carrageenan-induced paw edema at 100 mg/kg, po for 7 days challenged with carrageenan 1 hr post last dose on day 7 measured after 2 hr after challenge
[4] = tested on: Rattus norvegicus; assay: Anti-inflammatory activity in Rattus norvegicus Sprague-Dawley (rat) assessed as inhibition of carrageenan-induced paw edema at 50 mg/kg, po for 7 days challenged with carrageenan 1 hr post last dose on day 7 measured after 2 hr after challenge
[5] = tested on: Rattus norvegicus; assay: Antipyretic activity in yeast-fevered Rattus norvegicus Sprague-Dawley (rat) assessed as reduction in rectal temperature at 50 mg/kg, po administered 17 hr post challenge measured after 120 min; set-up: scale not given: the % may be the effect or the level left
[6] = tested on: Mus musculus; assay: Antinociceptive activity in Mus musculus Swiss (mouse) assessed as protection against acetic acid-induced writhing at 50 mg/kg, po administered 1 hr prior challenge measured for 20 min following acetic acid treatment relative to control
[7] = tested on: Rattus norvegicus; assay: Antipyretic activity in yeast-fevered Rattus norvegicus Sprague-Dawley (rat) assessed as reduction in rectal temperature at 50 mg/kg, po administered 17 hr post challenge measured after 60 min; set-up: scale not given: the % may be the effect or the level left
[8] = tested on: Rattus norvegicus; assay: Antipyretic activity in yeast-fevered Rattus norvegicus Sprague-Dawley (rat) assessed as reduction in rectal temperature at 50 mg/kg, po administered 17 hr post challenge measured after 30 min; set-up: scale not given: the % may be the effect or the level left
[9] = tested on: Rattus norvegicus; assay: Antipyretic activity in yeast-fevered Rattus norvegicus Sprague-Dawley (rat) assessed as reduction in rectal temperature at 100 mg/kg, po administered 17 hr post challenge measured after 30 min; set-up: scale not given: the % may be the effect or the level left
[10] = tested on: Rattus norvegicus; assay: Antipyretic activity in yeast-fevered Rattus norvegicus Sprague-Dawley (rat) assessed as reduction in rectal temperature at 100 mg/kg, po administered 17 hr post challenge measured after 120 min; set-up: scale not given: the % may be the effect or the level left
[11] = tested on: Rattus norvegicus; assay: Antipyretic activity in yeast-fevered Rattus norvegicus Sprague-Dawley (rat) assessed as reduction in rectal temperature at 100 mg/kg, po administered 17 hr post challenge measured after 60 min; set-up: scale not given: the % may be the effect or the level left
[12] = tested on: Rattus norvegicus; assay: Antipyretic activity in yeast-fevered Rattus norvegicus Sprague-Dawley (rat) assessed as reduction in rectal temperature at 100 mg/kg, po administered 17 hr post challenge measured after 90 min; set-up: scale not given: the % may be the effect or the level left
[13] = tested on: Rattus norvegicus; assay: Anti-inflammatory activity in Rattus norvegicus Sprague-Dawley (rat) assessed as inhibition of carrageenan-induced paw edema at 25 mg/kg, po for 7 days challenged with carrageenan 1 hr post last dose on day 7 measured after 2 hr after challenge
[14] = tested on: Mus musculus; assay: Antinociceptive activity in Mus musculus Swiss (mouse) assessed as protection against acetic acid-induced writhing at 25 mg/kg, po administered 1 hr prior challenge measured for 20 min following acetic acid treatment relative to control
[15] = tested on: Rattus norvegicus; assay: Anti-inflammatory in Rattus norvegicus Sprague-Dawley (rat) subcutaneously implanted with cotton pellets assessed as inhibition of granuloma growth at 25 mg/kg, po measured after 7 days; conditions: 168 h

SMILES: O=C(O)CCC(=O)/C=C/c1ccc2c(c1)OCO2
- Activity [1]: 3.41%
- inhibition in vivo at 50 mg/kg [2]: 53.3%
- inhibition in vivo at 100 mg/kg [3]: 68.8%
- inhibition in vivo at 50 mg/kg [4]: 57.5%
- Activity [5]: 2.49%
- Activity [6]: 69.65%
- Activity [7]: 4.08%
- Activity [8]: 0.99%

SMILES: NC(=O)c1cc(C(=O)CCC(=O)O)ccc1O
- Activity [1]: 2.71%
- inhibition in vivo at 50 mg/kg [2]: 34.4%
- inhibition in vivo at 100 mg/kg [3]: 27.5%
- inhibition in vivo at 50 mg/kg [4]: 13.6%
- Activity [5]: 2.44%
- Activity [6]: 59.24%
- Activity [7]: 2.11%
- Activity [8]: 0.86%

SMILES: CC(=O)c1cc(C(=O)CCC(=O)O)ccc1O
- Activity [1]: 2.63%
- inhibition in vivo at 50 mg/kg [2]: 5.2%
- inhibition in vivo at 100 mg/kg [3]: 22.4%
- inhibition in vivo at 50 mg/kg [4]: 4.11%
- Activity [5]: 2.52%
- Activity [6]: 61.47%
- Activity [7]: 1.8%
- Activity [8]: 1.58%

SMILES: CC(=O)Nc1ccc(O)cc1 [ACETAMINOPHEN]
- Activity [9]: 4.18%
- Activity [10]: 6.06%
- Activity [11]: 5.14%
- Activity [12]: 5.47%

SMILES: O=C([O-])Cc1ccccc1Nc1c(Cl)cccc1Cl.[Na+] [DICLOFENAC SODIUM]
- inhibition in vivo at 25 mg/kg [13]: 47.6%
- Activity [14]: 72.58%
- inhibition in vivo at 25 mg/kg [15]: 45.4%
